Holding throughout (test): DTP human tumour cell line panel, 48 h
Assay [1] relates to NCI-H460 lung.
Assay [2] deals with SF-295 CNS.
The subject of assay [3] is RPMI-8226 leukemia.
The test system of assay [4] is SK-OV-3 ovarian.
Assay [5] deals with DU-145 prostate.
The subject of assay [6] is NCI/ADR-RES ovarian.
The test system of assay [7] is CCRF-CEM leukemia.
The subject of assay [8] is OVCAR-5 ovarian.
The subject of assay [9] is M14 melanoma.
The test system of assay [10] is U251 CNS.

Structures are written as SMILES.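 A five-concentration, 48-hour dose response in 96-well plates underlies each endpoint, interpolated linearly between surrounding concentrations. TGI is the concentration that stops growth completely.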 Where a SMILES comes first, the peptide text is derived from it. The star is where a group is joined. Bn = c1ccc(C*)cc1 Bounds are passed on as bounds.

Consider `O=C1CCc2ccc3c(c21)CC1(Cc2ccccc2C1)C3`, for which the concentration for total growth inhibition (TGI) in [1] was 20.6 µM; in assay [2], 38 µM; in assay [3] it was more than 100 µM; in assay [4] it was more than 100 µM; in [5], more than 100 µM; in [6] it was 53.6 µM. For the same compound, the TGI is more than 100 µM in assay [7], 44.2 µM in assay [8], more than 100 µM in [9] and 74 µM in assay [10].
Regarding `Cc1nn(C(=O)c2ccc(Cl)cc2)c2c1C(c1ccc(O)cc1)SC(N)=N2` (stereo not drawn), the TGI in [1], in assay [2], in [3], in assay [4], in assay [5] and in assay [6] was more than 10 µM throughout. For the same compound, the TGI in assay [7], in assay [8], in assay [9] and in assay [10] was more than 10 µM throughout.
Take `COC(=O)C(CC(C)C)NC(=O)C(N)Cc1ccc(OCc2ccccc2)cc1` (stereo not drawn) (H-Tyr(Bn)-Leu-OMe; configuration not given here): the TGI in [1], in assay [2], in [3], in [4], in assay [5] and in assay [6] was more than 10 µM each time. Further, the TGI in [7], in [8], in assay [9] and in assay [10] was more than 10 µM each time.
Consider `CC1C(c2ccc3c(c2)OCO3)c2cc3c(cc2OC1N1CCOCC1)OCO3` (stereo not drawn), for which the TGI in assay [1] was more than 80.1 µM; in [2], more than 93 µM; in assay [3], 61.6 µM; in [4] it was more than 100 µM; in assay [5], more than 100 µM; in assay [6], 60.6 µM. Besides, the TGI in assay [7] is 73.3 µM; in assay [8], more than 100 µM; in [9], 76.9 µM; in assay [10], more than 83.8 µM.
Consider `COC(=O)c1cc2c(cc1CC(Cc1ccc3c(c1)CCC3)C(=O)OC)CCC2` (stereo not drawn), for which the TGI in assay [1] is more than 100 µM; in assay [2], more than 100 µM; in assay [3], 66.8 µM; in [4], more than 100 µM; in [5], more than 100 µM; in assay [6] it was more than 100 µM. In addition, the TGI in [7], in assay [8], in [9] and in [10] was more than 100 µM each time.
As for `C=C(C)[C@@]1(O[Si](C)(C)C)CCCC[C@@H]1CC(Sc1ccccc1)Sc1ccccc1`, the TGI in [1] worked out at 29.6 µM; in assay [2] it was 25.5 µM; in [3], 49.3 µM; in assay [4], 39.7 µM; in [5], 29.7 µM; in assay [6], 32 µM. Also, the TGI in assay [7] is 36.2 µM; in [8], 30.3 µM; in assay [9], 31.3 µM; in assay [10] it was 30.7 µM.
`CCOC(=O)[C@@H]1ON2O[C@@H](OC3CCCC3(c3ccccc3)c3ccccc3)C[C@H]3OC(=O)[C@@H]1C32` (stereo partly drawn): the TGI in assay [1] is more than 100 µM; in assay [2] it was more than 100 µM; in assay [3], 90.6 µM; in assay [4] it was more than 100 µM; in assay [5] it was 55.6 µM; in assay [6] it was more than 100 µM. Further, the TGI in assay [7] was 64.8 µM; in assay [8] it was 78.4 µM; in assay [9], 51.9 µM; in assay [10], more than 100 µM.
As for `COc1ccc(N=Nc2c3c(c(O)c4ccccc24)CCC(C)(C)O3)cc1`, the concentration for total growth inhibition (TGI) in [1] was 29.8 µM; in [2], 30.3 µM; in [3], 98.1 µM; in [4], more than 100 µM; in assay [5], 71.8 µM; in [6] it was more than 100 µM. The concentration for total growth inhibition (TGI) in assay [7] was determined as 41.7 µM; in assay [8], 43.3 µM; in assay [9] it was 39.3 µM; in assay [10] it was 37.9 µM.
Consider `N#CC(=N)c1ncn(-c2ccccc2N)c1N`, for which the TGI in assay [1], in assay [2], in assay [3], in assay [4], in assay [5] and in assay [6] was more than 100 µM throughout. In addition, the TGI in assay [7], in assay [8], in [9] and in [10] was more than 100 µM throughout.
Turning to `COc1cc(OCc2ccc3nc(OC)c(OC)nc3c2)cc(OC)c1OC`, the TGI in assay [1], in assay [2], in assay [3], in assay [4], in assay [5] and in assay [6] was more than 10 µM throughout. Besides, the TGI in [7], in assay [8], in assay [9] and in [10] was more than 10 µM throughout.
Turning to `O=C1CC(Sc2nc3ccc(I)cc3c(=O)n2Cc2ccccc2)C(=O)NN1` (stereo not drawn), the TGI stood at 57.2 µM in assay [1]; 36.9 µM in assay [2]; 45.5 µM in [3]; 29.7 µM in assay [4]; 34.8 µM in assay [5]; 52.1 µM in assay [6]. For the same compound, the TGI in assay [7] stood at 24.1 µM; in [8], 41.4 µM; in assay [9], 39.8 µM; in assay [10], 29.4 µM.
For `O=C1CCCc2cc3c(cc21)CC1(C3)Cc2ccc3c(c2C1)C(=O)CCC3` (stereo not drawn), the TGI in [1] is more than 100 µM; in assay [2], more than 100 µM; in [3], 50.8 µM; in assay [4], more than 100 µM; in assay [5] it was more than 100 µM; in assay [6], 37 µM. The TGI is 58.8 µM in assay [7], more than 100 µM in assay [8], 36.3 µM in assay [9] and more than 100 µM in [10].
As to `Clc1ccc(Cl)c(SCCCN2CCNCC2)c1`, the TGI in [1] was 42.1 µM; in assay [2], 37.1 µM; in assay [3] it was 48.6 µM; in assay [4], 32 µM; in assay [5] it was 36 µM; in assay [6], 36.2 µM. Moreover, the TGI turned out to be 50.5 µM in [7], 32.5 µM in assay [8], 35.3 µM in assay [9] and 34.6 µM in assay [10].
With `COc1c(O)c(O)cc2c1-c1ccc(OC)c(=O)cc1C(NC(C)=O)CC2` (stereo not drawn), the TGI in assay [1] is 50.9 µM; in assay [2], 20.5 µM; in assay [3], 54.9 µM; in [4], 32.9 µM; in [5] it was 40.6 µM; in assay [6], more than 69.8 µM. Moreover, the TGI in assay [7] is 40.2 µM; in assay [8] it was 80.6 µM; in assay [9], more than 79 µM; in assay [10] it was 28.9 µM.
Regarding `Nc1nc(Nc2ccc(Cl)cc2)sc1C(=O)c1cccs1`, the TGI was more than 100 µM in assay [1]; more than 100 µM in assay [3]; 50 µM in assay [4]; more than 100 µM in [5]; more than 100 µM in assay [6]; more than 100 µM in assay [7]. Also, the TGI in [8] is more than 100 µM; in assay [9], more than 100 µM; in assay [10] it was 38.4 µM.
`COC(=O)c1cc(C)ccc1CC(Cc1ccc(C)cc1)C(=O)OC` (stereo not drawn): the concentration for total growth inhibition (TGI) was more than 100 µM in assay [1]; more than 100 µM in [2]; more than 100 µM in [3]; 67.2 µM in [4]; more than 100 µM in assay [5]; more than 100 µM in [6]. Further, the TGI is more than 100 µM in assay [7], more than 85.4 µM in assay [8], more than 100 µM in assay [9] and more than 100 µM in [10].
In the case of `COc1cc(C=C2C(=O)NC(=S)NC2=O)cc(OC)c1OC`, the TGI in assay [1], in assay [2], in [3], in assay [4], in [5] and in assay [6] was more than 100 µM each time. The TGI in assay [7], in assay [8], in assay [9] and in [10] was more than 100 µM in each case.
Consider `Cc1cc2nc(-c3cc(C(C)(C)C)c(O)c(C(C)(C)C)c3)[nH]c2cc1C`, for which the TGI in assay [1], in assay [2], in assay [3], in assay [4], in assay [5] and in assay [6] was more than 100 µM throughout. For the same compound, the TGI is 5.71 µM in assay [7], more than 100 µM in [8], more than 100 µM in assay [9] and more than 34.3 µM in assay [10].
As for `Nc1nc(Nc2ccccc2)sc1C(=O)c1c[nH]c2ccccc12`, the TGI was 13.6 µM in assay [1]; more than 100 µM in [3]; 32.8 µM in [4]; 22.5 µM in assay [5]; 44.7 µM in assay [6]; 14.5 µM in assay [7]. Further, the results for the TGI in assay [8], in assay [9] and in assay [10] were 24.9 µM, 20.6 µM and 23.6 µM, respectively.

For the origin of these results see PubChem BioAssay (NCI).
